Data: patent US4175081A, “5-Substituted thiadiazole ureas” (priority 1977, dated 1979)

How the values were obtained:
[1] = tested on: Johnson grass (JG); assay: Pre-emergence herbicide test; type: in vivo, Sorgum helepense; settings: Sorghum halepense, 336 h, two weeks after treatment
Method in brief: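 Visual injury or control rating two weeks post-treatment, after pre-emergence spray of 8 or 4 lbs active per acre (38 gal/acre) onto pots sown the previous day. Greenhouse watering by sub-irrigation only.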

[2] = tested on: Crabgrass (CG); assay: Post-emergence herbicide test; type: in vivo, Digitaria sanquinalis; settings: Digitaria sanguinalis, post-emergence, 336 h, two weeks after treatment
Method in brief: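 Crabgrass (Digitaria sanquinalis) was surface seeded individually in 3' plastic pots of potting soil, covered with screened soil, and watered by sub-irrigation in greenhouse trays. Planting was staggered so seedlings reached the target stage together. Post-emergence sprays were applied in a hood with a removable belt and fixed nozzle, and control was visually rated two weeks after treatment.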

[3] = tested on: Amaranth pigweed (PW); assay: Pre-emergence herbicide test; type: in vivo, Amaranthus retroflexus; settings: 336 h, two weeks after treatment
Method in brief: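 Visual injury or control ratings were made at two weeks on pre-emergence pots, sub-irrigated in the greenhouse. Seeds were sown a day before a hood spray delivering 8 lbs/acre (or 4 lbs/acre) of compound in 38 gallons per acre.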

[4] = tested on: Corn (CN); assay: Post-emergence herbicide test; type: in vivo; settings: Zea mays, 336 h, two weeks after treatment
Method in brief: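 Greenhouse seedlings grown in potting soil and sprayed post-emergence at 8 lbs compound/acre (formulations also made for 4 lbs/acre) in 38 gallons/acre spray volume. Watering by sub-irrigation only. Injury or control rated visually two weeks after treatment.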

[5] = tested on: Johnson grass (JG); assay: Post-emergence herbicide test; type: in vivo, Sorgum helepense; settings: Sorghum halepense, 336 h, two weeks after treatment
Method in brief: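 Visual injury or control scores taken 2 weeks after a post-emergence spray of pot-grown plants. Application was 8 lbs/acre (or 4 lbs/acre) in 38 gal/acre. Plants were held in the greenhouse with sub-irrigation only.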

[6] = tested on: Amaranth pigweed (PW); assay: Post-emergence herbicide test; type: in vivo, Amaranthus retroflexus; settings: 336 h, two weeks after treatment
Method in brief: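 Visual injury or control ratings were made two weeks after spraying, with greenhouse watering by sub-irrigation only. Treatment was post-emergence, when pigweed seedlings had 1 or 2 true leaves, at 8 lbs active compound per acre (4 lbs/acre formulations also made) in a 38 gallons-per-acre spray volume.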

CNC(=O)Nc1nnc(C(F)(F)F)s1 [Example 1, 1-Methyl-3-[5-Trifluoromethyl-2-(1,3,4-Thiadiazolyl)] Urea]
60%: pest or weed control ([2]; 2 lb/acre)
90%: pest or weed control at 4483.4 g/ha ([2]; 4 lb/acre) | pest or weed control at 4483.4 g/ha ([3]; 4 lb/acre) | pest or weed control at 8966.8 g/ha ([3]; 8 lb/acre) | pest or weed control ([5]; 2 lb/acre) | pest or weed control at 4483.4 g/ha ([5]; 4 lb/acre)
70%: pest or weed control at 8966.8 g/ha ([1]; 8 lb/acre) | pest or weed control ([4]; 2 lb/acre)
80%: pest or weed control at 4483.4 g/ha ([1]; 4 lb/acre)
100%: pest or weed control at 8966.8 g/ha ([2]; 8 lb/acre) | pest or weed control at 4483.4 g/ha ([4]; 4 lb/acre) | pest or weed control at 8966.8 g/ha ([4]; 8 lb/acre) | pest or weed control at 8966.8 g/ha ([5]; 8 lb/acre) | pest or weed control at 2241.7 g/ha ([6]; 2 lb/acre) | pest or weed control at 4483.4 g/ha ([6]; 4 lb/acre) | pest or weed control at 8966.8 g/ha ([6]; 8 lb/acre)
